{"source": "patent US20250207109A1", "about": "“ENGINEERED SPLIT DHFR-BASED METHODS AND SYSTEMS FOR SELECTING CELLS THAT HAVE STABLY ACQUIRED A HETEROLOGOUS POLYNUCLEOTIDE” (DNA Twopointo, Inc., priority 2022, published 2025)", "molecules": {"B1": {"name": "P7A/P8A coiled coil fusion proteins: P7A / P8A Coiled Coil-Linker-Mouse DHFR (1-105; L22F/F31S) and (106-186) fusion pair (protein)", "chain 1": "MGEIAALEAKNAALKAEIAALEAKNAALKAGCGGGGSGGGGSVRPLNCIVAVSQNMGIGKNGDFPWPPLRNESKYFQRMTTTSSVEGKQNLVIMGRKTWFSIPEKNRPLKDRINIVLSRELKEPPRGAHFLAKSLDDALRLIEQPEL", "chain 2": "MKIAALKAENAALEAKIAALKAENAALEAGGCGGGGSGGGGSASKVDMVWIVGGSSVYQEAMNQPGHLRLFVTRIMQEFESDTFFPEIDLGKYKLLPEYPGVLSEVQEEKGIKYKFEVYEKKD"}}, "assay_type_in_all_cases": "cell-based, human", "key": {"FKBP12.6tr_F36V": {"tested_on": "FKBP12.6tr_F36V", "assay": "Split DHFR complementation assay to show rimiducid-dependent dimerization", "settings": "cells expressing FKBP12.6tr_F36V-DHFR fragment fusions; rimiducid 100 nM, methotrexate 0.2 μM", "from_the_text": "The Split DHFR concept was employed as the basis of a test of whether a fragment of the human protein FKBP12.6 could dimerize in the presence of rimiducid. For this purpose, an F36V substitution was introduced into FKBP12.6 in an effort to render it sensitive to rimiducid-dependent dimerization as is the case for the paralogous protein FKBP12. See Clackson T, Yang W, Rozamus L W, Hatada M, Amara J F, Rollins C T, Stevenson L F, Magari S R, Wood S A, Courage N L, Lu X, Cerasoli F, Gilman M, Holt D A. Redesigning an FKBP-ligand interface to generate chemical dimerizers with novel specificity. Proc Natl Acad Sci USA. 1998; 95 (18): 10437-42. doi: 10.1073/pnas.95.18.10437.\nThe truncated version of FKBP12.6 carrying the F36V substitution (SEQ ID NO: 192) was fused at its carboxy terminus to the two fragments of murine DHFR as in Example 1, with one of the fragments bearing the L22F and F31S substitutions to confer methotrexate resistance (SEQ ID NOs: 190 and 191). […]\n(§1) At left is the result for cells expressing the DHFR fragments fused to the P7A/P8A heterodimerizing coiled-coil peptides. […] Untransfected cells were analyzed under identical conditions as a control (at right)."}, "Jurkat T lymphoma cells": {"tested_on": "Jurkat T lymphoma cells", "assay": "Methotrexate selection of Jurkat cells co-transfected with pairs of transposons encoding mouse split DHFR fragments, flow cytometry for mTagBFP2/plobRFP", "settings": "0.1 μM methotrexate; compared with coiled coil pairs", "from_the_text": "Transgenes encoding the six DHFR fusion proteins regulated by the EF1-alpha promoter were each placed in a Leap-In transposon vector that also included a transgene encoding a fluorescent protein. For the transposons expressing the amino-terminal piece of DHFR, the fluorescent protein was mTagBFP2. For the transposons expressing the carboxy-terminal piece, the fluorescent protein was plobRFP. These fluorescent protein transgenes were included so that cells carrying the two kinds of transposons could be readily identified by flow cytometry or fluorescent microscopy.\nJurkat T lymphoma cells were transfected with the appropriate pairs of transposons (i.e., transposons encoding both an amino- and carboxy-terminal piece of DHFR fused to leucine zipper or coiled coil sequences that should associate stably with one another). The ThermoFisher Neon® electroporator was used with 100 μl tips and three pulses of 1350V, each pulse 10 mS in length. […]\nSuccessful methotrexate selection of cells carrying both transfected transposons was evident by the fact that the majority of cells expressed both mTagBFP2 and plobRFP. The cells were analyzed at ten days or six weeks after transfection as indicated."}, "Jurkat cells": {"tested_on": "Jurkat cells", "assay": "Split DHFR complementation assay, methotrexate selection of Jurkat cells expressing DHFR fragment fusion proteins", "settings": "0.2 μM methotrexate, two weeks; rimiducid 100 nM for FKBP12.6tr pair", "from_the_text": "The truncated version of FKBP12.6 carrying the F36V substitution (SEQ ID NO: 192) was fused at its carboxy terminus to the two fragments of murine DHFR as in Example 1, with one of the fragments bearing the L22F and F31S substitutions to confer methotrexate resistance (SEQ ID NOs: 190 and 191).\nAs a control, the P7A/P8A pair of DHFR fragment fusion proteins (involving SEQ ID Nos: 188 and 189) was also used. Whereas the P7A/P8A pair of constructs co-expressed the DHFR fragments with a red fluorescent protein (RFP; plobRFP) or a blue fluorescent protein (BFP; mTagBFP2), both FKBP12.6 tr transposons carried a BFP transgene.\nJurkat cells were co-transfected by electroporation (ThermoFisher Neon; 100 μl tips; 1350V, three 10 ms pulses) with pairs of plasmids carrying transposons encoding the two DHFR fragments (7.5 μg of each) together with mRNA encoding the Leap-In Transposase® enzyme (2 μg). The cells were plated in RPMI-1640 medium supplemented with fetal bovine serum (10% vol/vol) and methotrexate (0.2 μM). Rimiducid at 100 nM was added to the medium of cells that had been transfected with the FKBP12.6tr pair of plasmids.\nas §1"}}}
{"molecule": "CC[C@H](C(=O)N1CCCC[C@H]1C(=O)O[C@H](CCc1ccc(OC)c(OC)c1)c1cccc(OCC(=O)NCCNC(=O)COc2cccc([C@@H](CCc3ccc(OC)c(OC)c3)OC(=O)[C@@H]3CCCCN3C(=O)[C@@H](CC)c3cc(OC)c(OC)c(OC)c3)c2)c1)c1cc(OC)c(OC)c(OC)c1", "note": "[rimiducid]", "values": [{"measurement": "rimiducid dependence of survival in methotrexate", "setting": "FKBP12.6tr_F36V", "value": "the cells failed to thrive when the drug was removed"}]}
{"molecule": "leucine zipper pair of constructs: GCN4 Leucine Zipper-Linker-Mouse DHFR (1-105; L22F/F31S) and (106-186) fusion pair", "values": [{"measurement": "average level of red and blue fluorescence of selected cells", "setting": "Jurkat T lymphoma cells", "value": "higher average level of both red and blue fluorescence than the pairs involving the coiled coil sequences"}]}
{"molecule": "B1", "values": [{"measurement": "methotrexate resistance / survival of transfected cells", "setting": "Jurkat cells", "value": "conferred methotrexate resistance on the transfected cells"}]}
